Read-outs that look alike come from different tables or passages of the source.
Assays:
SUDHL10 [1] = assay: Induction of cytotoxicity (Assay 6), SUDHL10; conditions: read-out: Cytotox SUDHL10 [M] (median) IC50, CellTiter-Glo, 5 hours, SUDHL10
SUDHL5 [2] = assay: Antiproliferation assay (Assay 7), SUDHL5; assay type: cell-based; conditions: CellTiter-Glo, median, read-out: Antiproli SUDHL5 [M] (median) IC50
Method in brief: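 Luminescent ATP-based viability (CellTiter-Glo) measured after 72 hours of compound treatment at 37° C, alongside a time-zero plate read on the day of plating.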

BCL-2 = BCL-2 (Homo sapiens (Human), UniProt P10415); assay: Protein-protein interaction assay BCL-2/Bad BH3 peptide (BCL-2 assay, TR-FRET); assay type: binding; conditions: His-BCL-2 / Bad BH3 peptide, median
Chain of BCL-2 (P10415 other isoform, or with tags, fused parts or gaps): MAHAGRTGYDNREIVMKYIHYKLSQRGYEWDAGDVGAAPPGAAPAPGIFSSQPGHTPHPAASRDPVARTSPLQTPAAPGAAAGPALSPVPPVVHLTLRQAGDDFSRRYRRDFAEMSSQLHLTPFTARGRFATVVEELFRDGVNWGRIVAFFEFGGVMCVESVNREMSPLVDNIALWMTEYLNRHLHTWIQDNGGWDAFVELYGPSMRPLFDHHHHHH
Method in brief: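 His-BCL-2 (1-211, E. coli) at 1 nM preincubated 10 min at 22 °C with compound (11 concentrations, 0.1 nM-20 μM, duplicates), then 1 nM biotinylated Bad BH3 peptide added. After 1 h at 22 °C plus overnight at 4 °C, TR-FRET 665/620 ratio normalised to DMSO and no-BCL-2 controls, IC50 from 4-parameter fit.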

SUDHL10 [3] = assay: Induction of caspase-3/7 activity (Assay 4), SUDHL10; assay type: cell-based; conditions: caspase-3/7 induction, median
Method in brief: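 Caspase-3/7 activity measured by Caspase-Glo 3/7 luminescence in DLBCL cells after 3 h compound treatment at 37 °C. Medium-only background subtracted. EC50 fitted with C0 fixed at 1 and top set to the reference compound's plateau/max induction.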

SUDHL5 [4] = assay: Induction of cytotoxicity (Assay 6), SUDHL5; conditions: read-out: Cytotox SUDHL5 [M] (median) IC50, CellTiter-Glo, 5 hours, SUDHL5
Procedure: Assay 6 Induction of Cytotoxicity Upon Treatment of Cells with Selected Compounds
Therefore, cytotoxicity assays were run in parallel in SUDHL5 and SUDHL10 cells.
The different cell lines were plated in culture medium (RPMI 1640 [GIBCO #22400-089] supplemented with 10% Fetal Bovine Serum) at a density of 3,300 cells in 30 μl/well in a sterile, solid black, flat bottom, polystyrene, TC-treated 384-well microplate (Corning #3571) using Multidrop Combi Reagent Dispenser. As a control, medium without cells was also added to the plate. Cells were incubated in a humidified incubator at 37° C. overnight. On the next day, the cells were treated with compounds (stock solution, 10 mM in DMSO) using the HP D300 Digital Dispenser in a concentration range of 3.3×10e-5 M (33 μM) to 5×10e-9 M (5 nM) in a single-dot curve with at least 16 dilutions and a DMSO concentration of 0.33%. Rim wells were excluded. The cells were incubated for 5 hours in a humidified incubator at 37° C. After this incubation, 30 μl of CellTiter-Glo® Luminescent Cell Viability reagent (Promega, G7573) was added to each well using the Multidrop Combi Reagent Dispenser, followed by 15 minutes incubation on a shaker at room temperature. Finally, luminescence was read at 0.1 ms, with a gain of 3000 using the PHERAstar FS microplate reader (BMG Labtech).

SMILES | IC50 (SUDHL5 [2]; Homo sapiens, SU-DHL-5, 72 h) [M] | IC50 (BCL-2) [nM] | EC50 (SUDHL10 [3]; Homo sapiens, SU-DHL10, 3 h) [nM] | IC50 (SUDHL10 [1]; Homo sapiens, SU-DHL10, 5 h) [M] | IC50 (SUDHL5 [4]; Homo sapiens, SU-DHL-5, 5 h) [M] | IC50 (SUDHL10 [1]) [M] | IC50 (SUDHL5 [2]; 72 hours) [M] | EC50 (SUDHL10 [3]; 3 hours) [nM] | IC50 (SUDHL5 [4]) [M]
CCc1c2c(nn1C)CN(C)S(=O)(=O)CCCn1c(C(=O)O)c(CCCOc3cc(C)c(Cl)c(C)c3)c3ccc(Cl)c-2c31 [Example 22, (rac)-13-Chloro-1-(3-(4-chloro-3,5-dimethylphenoxy)propyl)-12-ethyl-8,11-dimethyl-4,5,6,8,9,11-hexahydropyrazolo[3′,4′:4,5][1,2,8]thiadiazacycloundecino[6,7,8-hi]indole-2-carboxylic acid 7,7-dioxide] | 1.9e-06 | > 20000 | 3300 | 3.6e-06 | 2.1e-06 | – | – | – | –
CCc1c2c(nn1C)CN(C)S(=O)(=O)CCCn1c(C(=O)O)c(CCCOc3cccc4c3CCCC4)c3ccc(Cl)c-2c31 [Example 23, (rac)-13-Chloro-12-ethyl-8,11-dimethyl-1-(3-((5,6,7,8-tetrahydronaphthalen-1-yl)oxy)propyl)-4,5,6,8,9,11-hexahydropyrazolo[3′,4′:4,5][1,2,8]thiadiazacycloundecino[6,7,8-hi]indole-2-carboxylic acid 7,7-dioxide] | 6.9e-07 | 15000 | 2300 | 2.5e-06 | 1.7e-06 | – | – | – | –
CCc1c2c(nn1C)CN(C)S(=O)(=O)CCCn1c(C(=O)O)c(CCCOc3ccc(F)c4ccccc34)c3ccc(Cl)c-2c31 [Example 24, (rac)-13-Chloro-12-ethyl-1-(34(4-fluoronaphthalen-1-yl)oxy)propyl)-8,11-dimethyl-4,5,6,8,9,11-hexahydropyrazolo[3′,4′:4,5][1,2,8]thiadiazacycloundecino[6,7,8-hi]indole-2-carboxylic acid 7,7-dioxide] | 1.2e-06 | > 20000 | 2300 | 2.4e-06 | 1.3e-06 | – | – | – | –
Cc1c2c(nn1C)CN(C1CC1)S(=O)(=O)CCCn1c(C(=O)O)c(CCCOc3cccc4ccccc34)c3ccc(Cl)c-2c31 [Example 40, (rac)-4-chloro-14-cyclopropyl-2,3-dimethyl-7-[3-(1-naphthyloxy)propyl]-11,12,14,15-tetrahydro-2H,10H-pyrazolo[3′,4′:4,5][1,2,8]thiadiazacycloundecino[6,7,8-hi]indole-8-carboxylic acid 13,13-dioxide] | – | > 20000 | – | – | – | 3.9e-06 | 2.6e-06 | 3300 | 2e-06

The next lines start with results.

IC50 (SUDHL5 [2]; Homo sapiens, SU-DHL-5, 72 h) [M] | IC50 (BCL-2) [nM] | EC50 (SUDHL10 [3]; Homo sapiens, SU-DHL10, 3 h) [nM] | SMILES | IC50 (SUDHL10 [1]; Homo sapiens, SU-DHL10, 5 h) [M] | IC50 (SUDHL5 [4]; Homo sapiens, SU-DHL-5, 5 h) [M] | IC50 (SUDHL10 [1]) [M] | IC50 (SUDHL5 [2]; 72 hours) [M] | EC50 (SUDHL10 [3]; 3 hours) [nM] | IC50 (SUDHL5 [4]) [M]
1.4e-06 | > 20000 | 5600 | Cc1c2c(nn1C)CN(C)S(=O)(=O)CCCn1c(C(=O)O)c(CCCOc3ccc(F)c4ccccc34)c3ccc(F)c-2c31 [Example 30, (rac)-13-Fluoro-1-(34(4-fluoronaphthalen-1-yl)oxy)propyl)-8,11,12-trimethyl-5,6,9,11-tetrahydro-4H,8H-pyrazolo[3′,4′:4,5][1]thia[2,8]diazacycloundecino[6,7,8-hi]indole-2-carboxylic acid 7,7-dioxide] | 4.4e-06 | 1.7e-06 | – | – | – | –
7.2e-06 | > 20000 | 14000 | CCc1c2c(nn1C)CN(CCN1CCOCC1)S(=O)(=O)CCCn1c(C(=O)O)c(CCCOc3cccc4cc(F)ccc34)c3ccc(Cl)c-2c31 [Example 77, (rac)-13-chloro-12-ethyl-1-(3-((6-fluoronaphthalen-1-yl)oxy)propyl)-11-methyl-8-(2-morpholinoethyl)-5,6,9,11-tetrahydro-4H,8H-pyrazolo[3′,4′:4,5][1]thia[2,8]diazacycloundecino[6,7,8-hi]indole-2-carboxylic acid 7,7-dioxide] | 1.3e-05 | 6.7e-06 | – | – | – | –

— patent US11401278B2, “Macrocyclic indole derivatives” (The Broad Institute, Inc., priority 2017, dated 2022)
